Experimental data reported in patent US8507445B2, “Compositions and methods of use of targeting peptides for diagnosis and therapy of human cancer” (Board of Regents, The University of Texas System, priority 2002, dated 2013).

Experiments:
[1] = system: IgGs isolated from the ascites of ovarian cancer patients; assay: Biopanning of CX7C phage library on IgGs from ovarian cancer ascites; type: binding, human
Protocol: To identify peptide epitopes specific for the anti-tumor immune response in ovarian cancer, a two-step screening procedure was followed (FIG. 34). The peptide library was initially pre-cleared on IVIg (intravenous immunoglobulins) to remove non-specific peptides. The pre-cleared peptide phage library was then incubated with IgGs isolated from the ascites of ovarian cancer patients. Phage bound to the ovarian cancer IgGs were recovered, amplified, and precipitated for subsequent rounds of biopanning. Following enrichment of a phage population that bound to ovarian cancer patient IgGs, individual phage clones were picked for sequence analysis to evaluate enrichment of the most consistently binding peptide sequences. Phage display biopanning was performed as described above.
Once the selection rounds were completed as determined by enrichment of phage capable of binding cancer patient IgGs over control at least 3 fold, sequencing and evaluation of the DNA phage insert were undertaken. To sequence the FUSE5 ssDNA directly, phage ssDNA was prepared using the StrataClean™ resin (Stratagene). StrataClean bead slurry was placed in a microcentrifuge tube containing phage. The mixture was vortexed strongly for 30 seconds and then incubated at room temperature for one minute. The tubes were centrifuged at 2,000×g for 1 minute. […]

[2] = system: antibodies isolated from the ascites of an ovarian cancer patient; assay: Competition of ascites antibody binding to immobilized GST fusion protein; set-up: species or system human
Protocol: Inhibition studies were performed in a similar manner as the binding assays described above with the exception that either GST fusion protein or synthetic peptide corresponding to the phage clone were added to the experiment. Where the peptide is mediating the interaction with the immunoglobulins then an inhibition of phage binding should be observed in a dose dependent manner versus the synthetic peptide. GST alone and a control peptide containing unrelated amino acids were tested at identical concentrations.
Peptide sequences of interest were expressed as GST fusion proteins (described above) and used to screen banked ascites and serum to determine the role of the humoral response against these markers. The purified GST-fusion proteins were used to coat a 96-well plate at 100 ng/well at room temperature (RT) or at 4° C. overnight. Following coating, the wells were emptied, rinsed, and non-specific sites were blocked with 200 μl 3% BSA/PBS at RT for 1-2 hours. Cancer patient ascites and/or sera were applied to each coated and blocked well at 1:100 dilution and then incubated at RT for 1 hour. […] Signals were detected in the presence of p-nitrophenyl phosphate by measuring OD405 at specific intervals to follow the course of color development. […]

DU145 tumors = assay: Competition of phage tumor localization by synthetic peptide; type: in vivo, nude mice; conditions: 300 μg synthetic peptide co-injected with phage
Protocol: Competition studies with the […] (SEQ ID NO:83) peptide were performed to determine whether it could inhibit localization of phage bearing the same targeting sequence to DU145 tumors. Nude mice bearing the prostate tumor xenograft were simultaneously injected with 300 μg of synthetic […] (SEQ ID NO:83) peptide and 10^9 phage bearing the same targeting peptide sequence. A control tumor-bearing mouse was co-injected with fd insertless phage plus synthetic peptide. After 24 hours of circulation, tumor tissue samples were removed, washed, fixed, sectioned and stained as disclosed above. Co-administration of synthetic peptide with the same targeting sequence inhibited the ability of […] (SEQ ID NO:83)-phage to localize to prostate carcinoma tissue (not shown). No staining of prostate carcinoma with control fd-tet phage was observed (not shown)

HSP90α = target: T1, HSP90α (Homo sapiens, UniProt P07900); assay: Receptor purification on biotinylated peptide beads; type: binding; conditions: MALDI analysis of excised bands
T1 construct: from tissue; host or cells: homogenate pellet of DU145 xenograft tumor grown in nude mice
Protocol: The prostate homing receptor for the B2 clone ([…] SEQ ID NO:83) was identified. Nude mice bearing DU145 xenografts were prepared and tissue samples from tumor, kidney and liver were removed. The tissue samples were immediately washed with PBS and three parts of homogenization buffer (PBS, 250 mM sucrose, 1 mM EDTA, protease inhibitors) was added to one part of tissue sample (about 4 ml). The tissue with homogenized with an electric grinder, then further homogenized with a dounce homogenizer. After sonication for 1 min on ice, the homogenate was centrifuged at 8000×g for 5 min. The supernatant was removed and the pellet was analyzed for receptor content.
The […] (SEQ ID NO:83) peptide was biotinylated and coupled to NeutrAvidin beads (Molecular Probes, Eugene, Oreg.) using standard methods. About 500 μg of biotinylated peptide was incubated with 1 ml of NeutrAvidin beads in binding buffer (0.5 M NaCl in PBS) overnight at 4° C. in a 2 ml column. The column was agitated using a rotator. Uncoupled peptides were removed and the beads washed three times with binding buffer and protease inhibitors. […]
The beads were washed four times with wash buffer (0.1% Triton X-100 in PBS with protease inhibitors) and the bound material eluted with 8 M guanidine HCl. Eluted proteins were analyzed on a 4-20% SDS-PAGE denaturing gel. […]

Sequence	share of the phage clones sequenced [1] [%]	inhibition of antibody binding to immobilized GST-CVPELGHEC [2]	inhibition of phage localization to prostate carcinoma (DU145 tumors)	receptor identified (HSP90α)
CVPELGHEC	86	competitively inhibited in a dose-dependent fashion		
YRCTLNSPFFWEDMTHECHA			inhibited	HSP90α
